Test results taken from US20190352329A1, “BETA-ADRENERGIC BLOCKING COMPOUND” (KING SAUD UNIVERSITY, priority 2018, published 2019).

Tests used:
beta adrenergic receptor = beta adrenergic receptor (Cavia porcellus, UniProt H0W3H1); assay: Blockade of isoprenaline inotropic effect in electrically driven guinea pig left atrium; format: cell-based; conditions: result in words
Excerpt: Data are expressed as means±s. e. mean. IC50s for each drug were estimated through non-linear regression analysis using ISI software for a PC computer. Differences between non paired groups were compared by Student's t-test or ANOVA test with the statistical programme Stat works TM; a value of P equal or smaller than 0.05 was taken as the limit of statistical significance.
To test beta adrenergic receptor blocking effects of compounds 3a and 3b, their actions on the inotropic effects of the beta receptor agonist isoprenaline of the guinea pig left atrium were studied.
Male guinea-pigs weighing 300±400 g were killed by a blow on the head. The heart was quickly removed and placed in oxygenated Krebs-bicarbonate solution. The left atrium was carefully dissected and placed between bipolar platinum electrodes. The base of the atrium was tied to one of the electrodes and the tip to an isometric transducer connected to an amplifier and recorder (Cibertec, Madrid, Spain), with 1 g baseline tension. […]
This concentration was selected because it produced a submaximal and measurable inotropic effect that was reproducible after 7^−1° additions of isoprenaline, given at 30-min intervals. […] Each individual preparation served to provide a full concentration-response curve for a given compound, and from it IC50 was calculated.

[1] = 6-week application, daily dose of 60 mg/kg b.w., i.p.; cited from earlier work

beta adrenergic receptor, sequence (H0W3H1 1-470): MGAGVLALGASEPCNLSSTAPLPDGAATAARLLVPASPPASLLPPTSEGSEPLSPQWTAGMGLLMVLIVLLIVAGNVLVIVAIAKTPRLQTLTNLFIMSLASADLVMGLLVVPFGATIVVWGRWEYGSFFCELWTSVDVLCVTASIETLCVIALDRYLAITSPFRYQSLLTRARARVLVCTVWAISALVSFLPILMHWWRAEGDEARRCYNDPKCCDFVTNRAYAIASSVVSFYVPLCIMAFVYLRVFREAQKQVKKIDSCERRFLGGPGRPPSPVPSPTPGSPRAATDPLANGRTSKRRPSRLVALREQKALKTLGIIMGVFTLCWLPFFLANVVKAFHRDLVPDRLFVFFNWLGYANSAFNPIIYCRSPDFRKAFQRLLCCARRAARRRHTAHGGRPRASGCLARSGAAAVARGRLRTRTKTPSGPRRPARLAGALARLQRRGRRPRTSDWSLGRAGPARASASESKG

Row | Compound | blockade of the isoprenaline inotropic response (beta adrenergic receptor) | direct cardiac effect (heart rate decrease) [1]
1 | COC(=O)C12CCC(C)C(C)C1C1=CCC3C4(C)CCC(OCC(O)CNC(C)C)C(C)(C)C4CCC3(C)C1(C)CC2 (stereo not drawn) [Compound 3a, methyl 3-β-[2-hydroxy-3-(isopropylamino)propoxy]-urs-12-en-28-oate] | blocked the isoprenaline inotropic response almost fully | 
2 | COC(=O)C12CCC(C)C(C)C1C1=CCC3C4(C)CCC(OCC(O)CNCC(C)C)C(C)(C)C4CCC3(C)C1(C)CC2 (stereo not drawn) [Compound 3b, methyl-3-β-[2-hydroxy-3-(isobutylamino)propoxy]-urs-12-en-28-oate] | blocked the isoprenaline inotropic response almost fully | 
3 | CC1(C)CC[C@]2(C(=O)O)CC[C@]3(C)C(=CC[C@@H]4[C@@]5(C)CC[C@H](O)C(C)(C)[C@@H]5CC[C@]43C)[C@@H]2C1 [Oleanolic] |  | 34%
